Data as given in ChEMBL document CHEMBL5291721, “A preclinical secondary pharmacology resource illuminates target-adverse drug reaction associations of marketed drugs” (Nat Commun, 2023).

Legend:
Thromboxane A2 receptor = molecular target: T1, Thromboxane A2 receptor (Homo sapiens, UniProt P21731)
T1 sequence (P21731 whole entry): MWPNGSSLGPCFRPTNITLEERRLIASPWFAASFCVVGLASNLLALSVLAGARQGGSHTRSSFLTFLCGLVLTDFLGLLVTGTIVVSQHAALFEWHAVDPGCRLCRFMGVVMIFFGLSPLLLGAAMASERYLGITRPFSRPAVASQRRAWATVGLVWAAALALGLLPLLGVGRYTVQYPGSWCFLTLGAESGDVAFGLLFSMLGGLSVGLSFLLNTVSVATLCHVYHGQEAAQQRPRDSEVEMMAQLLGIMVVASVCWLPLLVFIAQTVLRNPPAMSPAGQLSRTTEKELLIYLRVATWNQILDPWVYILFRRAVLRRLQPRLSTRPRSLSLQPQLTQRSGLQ

[1] = molecular target: Voltage-gated inwardly rectifying potassium channel KCNH2 (Homo sapiens, UniProt Q12809); assay type: functional; details: read-out: AC50
Chain of Voltage-gated inwardly rectifying potassium channel KCNH2 (Q12809 whole entry): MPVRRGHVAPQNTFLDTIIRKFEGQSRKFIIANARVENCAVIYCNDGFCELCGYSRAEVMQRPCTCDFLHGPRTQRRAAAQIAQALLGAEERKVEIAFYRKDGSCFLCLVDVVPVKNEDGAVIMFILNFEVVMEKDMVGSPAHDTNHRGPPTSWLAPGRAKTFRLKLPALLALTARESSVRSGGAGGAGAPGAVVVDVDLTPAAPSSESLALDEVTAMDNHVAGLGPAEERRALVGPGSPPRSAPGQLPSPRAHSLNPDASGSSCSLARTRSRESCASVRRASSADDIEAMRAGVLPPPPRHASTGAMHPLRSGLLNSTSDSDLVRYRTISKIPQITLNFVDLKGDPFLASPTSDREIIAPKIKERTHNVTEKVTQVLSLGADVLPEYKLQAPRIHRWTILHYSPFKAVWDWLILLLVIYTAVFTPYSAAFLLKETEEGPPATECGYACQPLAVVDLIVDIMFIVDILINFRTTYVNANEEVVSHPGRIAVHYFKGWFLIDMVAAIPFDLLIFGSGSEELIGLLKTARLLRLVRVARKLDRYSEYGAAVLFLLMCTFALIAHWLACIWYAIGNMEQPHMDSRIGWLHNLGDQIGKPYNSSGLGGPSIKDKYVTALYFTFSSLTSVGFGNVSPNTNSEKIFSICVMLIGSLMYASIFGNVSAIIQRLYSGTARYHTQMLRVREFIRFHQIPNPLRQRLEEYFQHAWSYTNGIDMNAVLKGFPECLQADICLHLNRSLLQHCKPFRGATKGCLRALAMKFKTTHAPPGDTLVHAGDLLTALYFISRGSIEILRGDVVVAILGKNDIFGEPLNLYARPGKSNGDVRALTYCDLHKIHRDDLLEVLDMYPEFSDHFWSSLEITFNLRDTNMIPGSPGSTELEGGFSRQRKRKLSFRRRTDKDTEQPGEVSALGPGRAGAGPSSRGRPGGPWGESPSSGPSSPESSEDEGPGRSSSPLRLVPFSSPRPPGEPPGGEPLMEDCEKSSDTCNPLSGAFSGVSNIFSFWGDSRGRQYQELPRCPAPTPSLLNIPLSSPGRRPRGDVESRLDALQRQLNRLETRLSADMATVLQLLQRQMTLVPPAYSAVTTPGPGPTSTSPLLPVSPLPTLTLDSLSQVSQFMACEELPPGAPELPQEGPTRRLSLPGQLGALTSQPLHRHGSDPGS

Vasopressin V2 receptor = Vasopressin V2 receptor (Homo sapiens, UniProt P30518)
Chain of Vasopressin V2 receptor (P30518 whole entry): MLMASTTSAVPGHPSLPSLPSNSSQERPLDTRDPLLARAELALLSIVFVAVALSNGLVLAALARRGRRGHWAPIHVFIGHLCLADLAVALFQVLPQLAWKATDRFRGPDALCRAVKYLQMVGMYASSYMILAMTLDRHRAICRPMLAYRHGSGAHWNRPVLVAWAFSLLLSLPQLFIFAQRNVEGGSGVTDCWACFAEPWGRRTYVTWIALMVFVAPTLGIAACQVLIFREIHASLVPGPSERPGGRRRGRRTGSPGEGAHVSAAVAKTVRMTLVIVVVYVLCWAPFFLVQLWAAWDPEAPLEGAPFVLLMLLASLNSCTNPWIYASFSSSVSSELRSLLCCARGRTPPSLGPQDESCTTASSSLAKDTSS

[2] = molecular target: Kappa-type opioid receptor (Homo sapiens, UniProt P41145)
Chain of Kappa-type opioid receptor (P41145 whole entry): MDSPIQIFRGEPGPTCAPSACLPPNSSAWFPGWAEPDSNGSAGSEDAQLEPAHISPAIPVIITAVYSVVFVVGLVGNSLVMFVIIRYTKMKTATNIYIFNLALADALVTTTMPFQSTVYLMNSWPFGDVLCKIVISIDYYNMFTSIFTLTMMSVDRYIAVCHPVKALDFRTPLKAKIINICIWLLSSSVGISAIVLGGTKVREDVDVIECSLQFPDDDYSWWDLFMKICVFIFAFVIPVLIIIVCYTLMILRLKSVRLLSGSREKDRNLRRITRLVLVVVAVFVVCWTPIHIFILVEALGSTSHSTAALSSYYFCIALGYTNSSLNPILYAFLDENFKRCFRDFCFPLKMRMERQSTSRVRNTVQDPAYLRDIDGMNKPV

[3] = molecular target: T2, Alpha-2A adrenergic receptor (Homo sapiens, UniProt P08913); assay type: functional, cell-based
T2 sequence (P08913 whole entry): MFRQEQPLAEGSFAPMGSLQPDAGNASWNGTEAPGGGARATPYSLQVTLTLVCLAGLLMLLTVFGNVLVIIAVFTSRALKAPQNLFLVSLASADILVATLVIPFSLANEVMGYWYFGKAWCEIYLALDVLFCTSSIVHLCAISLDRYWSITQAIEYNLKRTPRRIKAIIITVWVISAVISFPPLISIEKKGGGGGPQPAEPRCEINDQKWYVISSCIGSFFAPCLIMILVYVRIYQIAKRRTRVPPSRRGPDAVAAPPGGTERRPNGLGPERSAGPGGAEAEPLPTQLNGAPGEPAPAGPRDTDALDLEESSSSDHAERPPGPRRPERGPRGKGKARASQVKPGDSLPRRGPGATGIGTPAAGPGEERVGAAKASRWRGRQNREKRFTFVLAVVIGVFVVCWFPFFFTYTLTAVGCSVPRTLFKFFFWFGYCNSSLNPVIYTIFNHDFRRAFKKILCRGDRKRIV

[4] = molecular target: Gamma-aminobutyric acid receptor subunit alpha-1 (Rattus norvegicus, UniProt P62813)
Chain of Gamma-aminobutyric acid receptor subunit alpha-1 (P62813 whole entry): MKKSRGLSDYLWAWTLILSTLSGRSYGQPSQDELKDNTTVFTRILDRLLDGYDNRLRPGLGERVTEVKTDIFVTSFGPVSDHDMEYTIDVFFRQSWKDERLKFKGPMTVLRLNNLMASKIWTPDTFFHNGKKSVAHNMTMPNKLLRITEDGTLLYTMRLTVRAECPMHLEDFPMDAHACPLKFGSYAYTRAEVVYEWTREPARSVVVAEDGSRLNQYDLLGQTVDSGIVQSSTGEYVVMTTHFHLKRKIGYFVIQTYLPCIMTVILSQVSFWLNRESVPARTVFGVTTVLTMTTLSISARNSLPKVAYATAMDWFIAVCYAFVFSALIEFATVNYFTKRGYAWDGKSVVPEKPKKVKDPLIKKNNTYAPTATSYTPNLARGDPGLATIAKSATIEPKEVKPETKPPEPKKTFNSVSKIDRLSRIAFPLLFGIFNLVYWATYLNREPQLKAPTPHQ

Progesterone receptor = molecular target: T3, Progesterone receptor (Homo sapiens, UniProt P06401); assay type: functional
T3 sequence (P06401 whole entry): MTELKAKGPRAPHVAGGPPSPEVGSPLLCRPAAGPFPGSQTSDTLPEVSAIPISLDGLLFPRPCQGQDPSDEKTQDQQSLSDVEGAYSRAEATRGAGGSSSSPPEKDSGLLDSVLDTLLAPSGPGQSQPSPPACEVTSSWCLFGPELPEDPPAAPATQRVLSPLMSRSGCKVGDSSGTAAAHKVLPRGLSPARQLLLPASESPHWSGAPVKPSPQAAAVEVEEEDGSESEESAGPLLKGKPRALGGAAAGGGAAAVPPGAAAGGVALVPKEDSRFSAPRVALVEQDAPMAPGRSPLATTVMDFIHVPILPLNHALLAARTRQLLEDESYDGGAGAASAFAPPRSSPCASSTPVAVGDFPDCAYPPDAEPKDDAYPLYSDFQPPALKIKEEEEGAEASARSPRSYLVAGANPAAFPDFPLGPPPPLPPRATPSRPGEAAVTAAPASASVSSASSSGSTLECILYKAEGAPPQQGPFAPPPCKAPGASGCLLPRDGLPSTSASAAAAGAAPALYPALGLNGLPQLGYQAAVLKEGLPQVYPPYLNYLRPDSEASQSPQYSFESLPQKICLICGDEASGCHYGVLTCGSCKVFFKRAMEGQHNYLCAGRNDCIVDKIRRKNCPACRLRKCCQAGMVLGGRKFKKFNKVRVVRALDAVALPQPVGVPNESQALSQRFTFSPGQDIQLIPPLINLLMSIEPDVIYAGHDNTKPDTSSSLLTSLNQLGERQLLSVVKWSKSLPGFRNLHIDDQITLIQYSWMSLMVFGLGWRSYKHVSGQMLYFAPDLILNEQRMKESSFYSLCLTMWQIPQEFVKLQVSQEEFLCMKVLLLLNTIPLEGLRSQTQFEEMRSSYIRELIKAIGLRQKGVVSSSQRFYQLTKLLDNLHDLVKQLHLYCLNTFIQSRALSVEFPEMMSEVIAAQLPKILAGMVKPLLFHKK

Cannabinoid receptor 1 = Cannabinoid receptor 1 (Homo sapiens, UniProt P21554); assay type: functional, cell-based
Chain of Cannabinoid receptor 1 (P21554 whole entry): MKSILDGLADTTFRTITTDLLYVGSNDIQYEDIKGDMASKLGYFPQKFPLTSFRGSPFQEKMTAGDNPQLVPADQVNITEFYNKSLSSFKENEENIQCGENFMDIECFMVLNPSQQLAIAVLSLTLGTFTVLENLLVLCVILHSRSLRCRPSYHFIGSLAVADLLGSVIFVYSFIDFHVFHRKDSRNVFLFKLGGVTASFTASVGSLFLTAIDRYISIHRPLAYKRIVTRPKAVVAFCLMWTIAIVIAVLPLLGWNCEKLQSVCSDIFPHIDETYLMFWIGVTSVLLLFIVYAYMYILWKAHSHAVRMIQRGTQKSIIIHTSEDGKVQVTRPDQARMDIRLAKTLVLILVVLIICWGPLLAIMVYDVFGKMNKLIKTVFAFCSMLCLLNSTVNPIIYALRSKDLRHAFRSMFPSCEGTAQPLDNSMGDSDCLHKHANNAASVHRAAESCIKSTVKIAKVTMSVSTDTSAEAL
Further: assay procedure not described here.

Structure (SMILES)	AC50 (Thromboxane A2 receptor) [µM]	AC50 [1] [µM]	AC50 (Vasopressin V2 receptor) [µM]	AC50 [2] [µM]	AC50 [3] [µM]	AC50 [4] [µM]	AC50 (Progesterone receptor) [µM]	AC50 (Cannabinoid receptor 1) [µM]
O=C1CN=C(c2ccccc2Cl)c2cc([N+](=O)[O-])ccc2N1 [CLONAZEPAM]	> 30	> 30	> 30	> 10	> 10	> 10	–	–
Nc1ccc(S(=O)(=O)Nc2ncccn2)cc1 [SULFADIAZINE]	> 10	> 30	> 10	> 10	> 10	> 10	> 10	–
CC(=O)[C@@]1(O)CC[C@H]2[C@@H]3C[C@H](C)C4=CC(=O)C=C[C@]4(C)[C@@]3(F)[C@@H](O)C[C@@]21C [FLUOROMETHOLONE]	> 10	> 30	> 10	> 10	> 10	> 10	0.053	> 30
CN1C2CCCC1CC(NC(=O)c1nn(C)c3ccccc13)C2 (configuration not stated) [GRANISETRON]	> 30	–	> 30	> 10	> 10	> 10	–	> 30
CC(C)(C)NCC(O)COc1cccc2c1CC(O)C(O)C2 (configuration not stated) [NADOLOL]	> 10	> 30	> 10	> 10	> 10	> 10	> 10	> 30
OCCN(CCO)c1nc(N2CCCCC2)c2nc(N(CCO)CCO)nc(N3CCCCC3)c2n1 [DIPYRIDAMOLE]	> 30	> 30	> 30	> 30	> 30	> 30	–	–
CCCCOC(=O)c1ccc(N)cc1 [BUTAMBEN]	> 30	> 30	> 30	> 30	> 30	> 30	> 30	> 30
N=C(N)NC(=O)Cc1c(Cl)cccc1Cl [GUANFACINE]	> 30	> 30	> 30	5.95	–	> 30	–	> 30
CCOC(=O)C1=C(C)NC(C)=C(C(=O)OC)C1c1cccc(Cl)c1Cl (configuration not stated) [FELODIPINE]	8.41	> 30	> 30	8.88	> 10	> 10	–	> 30
CC(=O)OCC(=O)[C@@]1(O)CC[C@H]2[C@@H]3CCC4=CC(=O)CC[C@]4(C)[C@@]3(F)[C@@H](O)C[C@@]21C [FLUDROCORTISONE ACETATE]	> 30	> 30	> 30	> 30	> 30	> 30	8.2	> 30
Cc1cccc(Nc2ccncc2S(=O)(=O)NC(=O)NC(C)C)c1 [TORSEMIDE]	20.8	> 30	> 30	> 10	> 10	> 10	> 10	–
Nc1cc(N2CCCCC2)nc(N)[n+]1[O-] [MINOXIDIL]	> 30	–	> 30	> 10	> 10	> 10	–	–
CNCCc1ccccn1 [BETAHISTINE]	> 30	> 30	> 30	> 30	> 30	> 30	> 30	> 30
CN1CCC(=C2c3ccccc3CC(=O)c3sccc32)CC1 [KETOTIFEN]	> 10	1.5	> 10	5.38	> 10	> 10	> 10	16
CCC1(C)CC(=O)NC1=O (configuration not stated) [ETHOSUXIMIDE]	> 10	> 30	> 10	> 10	> 10	> 10	> 10	–
CC(C)CN(C[C@@H](O)[C@H](Cc1ccccc1)NC(=O)O[C@H]1CCOC1)S(=O)(=O)c1ccc(N)cc1	> 30	> 30	> 30	> 10	> 10	> 10	> 10	12
CC1CC(OC(=O)C(O)c2ccccc2)CC(C)(C)C1 (configuration not stated) [CYCLANDELATE]	> 10	> 30	> 10	> 10	> 10	> 10	> 30	–
Cc1nnc2n1-c1ccc(Cl)cc1C(c1ccccc1)=NC2 [ALPRAZOLAM]	> 30	> 30	> 30	7.48	> 10	> 10	–	> 30
CC1Cc2ccccc2N1NC(=O)c1ccc(Cl)c(S(N)(=O)=O)c1 (configuration not stated) [INDAPAMIDE]	> 30	> 30	> 30	> 10	> 10	> 10	–	> 30
CC(NC(C)(C)C)C(=O)c1cccc(Cl)c1 (configuration not stated) [BUPROPION]	> 30	–	> 30	–	> 10	–	–	> 30
CN(Cc1ccc(C(C)(C)C)cc1)Cc1cccc2ccccc12 [BUTENAFINE]	> 10	2.8	> 10	> 10	> 10	> 10	> 30	–
CCN(CC)CC(=O)Nc1c(C)cccc1C [LIDOCAINE]	> 30	–	> 30	–	–	–	–	–
CC1=C(CC(=O)O)c2cc(F)ccc2/C1=C\c1ccc([S+](C)[O-])cc1 (configuration not stated)	> 30	> 30	> 30	> 10	> 10	> 10	–	> 30
COc1nc(C)nc(Cl)c1N=C1NCCN1 [MOXONIDINE]	> 30	> 30	> 30	> 30	–	> 30	> 30	> 30
CC(=O)N1CCN(c2ccc(OCC3COC(Cn4ccnc4)(c4ccc(Cl)cc4Cl)O3)cc2)CC1 (configuration not stated) [KETOCONAZOLE]	> 10	–	> 10	> 10	> 10	> 10	> 10	> 30
CCc1ccc(C(=O)C(C)CN2CCCCC2)cc1 (configuration not stated) [EPERISONE]	> 30	1.57	> 30	> 30	> 30	> 30	> 30	–
CCN(C(C)=O)c1cccc(-c2ccnc3c(C#N)cnn23)c1 [ZALEPLON]	> 30	> 30	> 30	> 10	> 10	–	> 30	> 30
